Data as given in patent publication US11903927B2, “Combination treatment of cancer” (Scandion Oncology A/S, priority 2016, dated 2024).
Where two headings read alike, the source gives them in different places.

Assays:
[1] = test system: human HT29 colon cancer cell line; assay: HT29 colon tumour xenograft; assay type: in vivo; settings: mice; NS3728 80 mg/kg PO, paclitaxel 5 mg/kg IP, 5-flourouracil 30 mg/kg IP, alone or combined; dosing days 4-8, 11-15, 18-22
Experimental: The in vivo antitumor effect of NS3728 on the human HT29 colon cancer cell line were tested as monotherapy (80 mg/kg) respectively in combination with paclitaxel (5 mg/kg) or 5-flourouracil (30 mg/kg) in two independent experimental series. NS3728 was given per oral (PO), whereas both paclitaxel and 5-flourouracil were dosed intraperitoneally (IP) by injection.
The dosing occurred in periods (days 4-8; days 11-15, days 18-22) with daily dosing of both NS3728 and cytotoxic drug, interrupted by dosing holidays.

VRAC = settings: read-out: IC50 as VRAC blocker; cited from earlier work
[2] = test system: docetaxel resistant MCF-7 breast cancer cells; assay: MTT cell viability, docetaxel resistant MCF-7; assay type: cell-based, human; settings: 72 hours
Text: (§1) Breast cancer is a heterogenous disease and at least 6 subtypes of breast cancer have been described previously by Soerlie et al (PMID: 11553815). As a major difference, breast cancer can be divided into hormone (estrogen and progesterone) receptor positive and hormone receptor negative breast cancer. We have in our experiments included these two major subtypes. We established human breast cancer cell lines that are resistant to the chemotherapy docetaxel as described in Hansen et al 2015 (PMID: 25596703). These cell lines are MCF-7 and MDA-MB-231.
(§2) Subsequently, NS3728, docetaxel or combinations of the two drugs were added for 72 hours before cell viability was determined. […] Each data point was carried out in triplicate.

[3] = test system: Docetaxel resistant MDA-MB-231 breast cancer cells; assay: MTT cell viability, docetaxel resistant MDA-MB-231; assay type: cell-based, human
Text: as §1, §2

[4] = test system: fulvestrant-resistant MCF-7/LCC9 cells; assay: MTT cell viability, fulvestrant resistant MCF-7/LCC9; assay type: cell-based, human
Experimental: These cell lines are MCF-7/LCC2. We also established human breast cancer cell lines that are resistant to the anti-estrogen Fulvestrant as described in Brünner et al 1997 (PMID: 9270017). MCF-7 is an estrogen and progesterone receptor positive cell line.
as §2

[5] = Experimental: The in vivo anti-tumor effect of NS3728 on C6 glioma cells given either as monotherapy (40 mg/kg/day) or in combination with temozolomide (Temodal, 25 or 5 mg/kg/day) was tested in two separate experiments, using either the xenograft method or the subcutaneous air sac model (SAS; see Lichtenberg, J., P. J. Hjarnaa, P. E. Kristjansen, D. Hansen & L. Binderup: The rat subcutaneous air sac mode: A quantitative assay of antiangiogenesis in induced vessels Pharmacology & Toxicology, 1999, 84, 34-40).
In the first study 5 million C6 rat glioma cells were inoculated into the flank of Fisher rats.

C6 glioma cells = assay: C6 glioma subcutaneous air sac (SAS) model; assay type: in vivo, rat; settings: 2.5 million C6 cells on air sac membrane; NS3728 40 mg/kg/day oral, temozolomide 5 mg/kg/day, alone or combined; 10 days of treatment
Experimental: In the second study the tumour growth was retarded by inoculating only half the number of cells (2.5 million of C6 cells per animal) and making use of the subcutaneous air sac (SAS) technique. In brief, the rats were anaesthetized with CO2/O2 and 10-15 ml of air was introduced dorsally by subcutaneous injections to produce an air sac located approximately 4-5 cm behind the head. The wall of the air sac became progressively thicker with time and after 10-14 days a sufficient lining of cells with the appearance of a transparent membrane had been established. The C6 glioma cells were inoculated in the rats directly on the membrane. The treatment was started at the day of inoculation and the study was terminated on day 10 of treatment.

[6] = test system: SN-38 resistant HCT116 CRC cancer cells; assay: MTT cell viability, SN-38 resistant HCT116; assay type: cell-based, human
Experimental: (§3) These cell lines are HCT116, HT29 and LoVo.
(§4) Each data point was carried out in triplicate.

[7] = test system: oxaliplatin resistant HT29 CRC cancer cells; assay: MTT cell viability, oxaliplatin resistant HT29; assay type: cell-based, human
Experimental: as §3, §4

[8] = test system: tamoxifen-resistant MCF-7/LCC2 cells; assay: MTT cell viability, tamoxifen resistant MCF-7/LCC2; assay type: cell-based, human; settings: 40 μM NS3728, 72 hours
Experimental: These cell lines are MCF-7/LCC2. We also established human breast cancer cell lines that are resistant to the anti-estrogen Fulvestrant as described in Brünner et al 1997 (PMID: 9270017). MCF-7 is an estrogen and progesterone receptor positive cell line. […] Subsequently, NS3728, docetaxel or combinations of the two drugs were added for 72 hours before cell viability was determined. […] Each data point was carried out in triplicate.

[9] = test system: SN-38 resistant HT29 CRC cancer cells
Experimental: (§5) The cells were seeded in 96-well plates (10,000 cells/well) and allowed to adhere for 24 hours. Subsequently, NS3728, OXP, SN-38 or combinations of the drugs were added for 48 hours before cell viability was determined. All values are expressed in percentage of untreated cells (named: “no treatment”). “DMSO” refers to the solvent control as both NS3728 and chemotherapeutic drugs are diluted in DMSO. Thus, the DMSO (Dimethyl sulfoxide) control is included to investigate any potential effect on cell viability by the organic solvent. Each data point was carried out in triplicate.

[10] = test system: SN-38 resistant LoVo CRC cancer cells
Experimental: as §5

cancer cells = settings: in vitro; cited from earlier work
[11] = test system: SN-38 resistant LoVo CRC cancer cells; assay: cells; settings: Homo sapiens, 48 h, read-out: cell viability
Experimental: as §5

Experimental for HCT116 parental cells: (§6) The cells were seeded in 96-well plates (10,000 cells/well) and allowed to adhere for 24 hours. Subsequently, NS3728, OXP, SN-38 or combinations of NS3728 with one of the cytotoxic drugs were added for 48 hours before cell viability was determined. All values are expressed in percentage of untreated cells (named: “no treatment”). “DMSO” refers to the solvent control as both NS3728 and chemotherapeutic drugs are diluted in DMSO. Thus, the DMSO (Dimethyl sulfoxide) control is included to investigate any potential effect on cell viability by the organic solvent. Each data point was carried out in triplicate.
Experimental for HT29 parental cells: as §6
Experimental for LoVo parental cells: as §6

O=c1[nH]cc(F)c(=O)[nH]1 [5-flourouracil, 5-fluorouracil]
tumour volume growth curves [1]: mild (non-significant) depression of the growth curves

O=S(=O)(O)c1cc(N=C=S)ccc1C=Cc1ccc(N=C=S)cc1S(=O)(=O)O [DIDS]
IC50 (VRAC): 26000 nM

CC(=O)O[C@@]12CO[C@@H]1C[C@H](O)[C@@]1(C)C(=O)[C@H](O)C3=C(C)[C@@H](OC(=O)[C@H](O)[C@@H](NC(=O)OC(C)(C)C)c4ccccc4)C[C@@](O)([C@@H](OC(=O)c4ccccc4)[C@H]21)C3(C)C [Docetaxel, docetaxel, reference compound]
cell viability ([2]; 65 nM Docetaxel monotherapy): did not decrease cell viability | cell viability ([3]; 150 nM Docetaxel, 72 hours): about 50 % of untreated controls

C[C@]12CC[C@@H]3c4ccc(O)cc4C[C@@H](CCCCCCCCC[S+]([O-])CCCC(F)(F)C(F)(F)F)[C@H]3[C@@H]1CC[C@@H]2O (stereo partly drawn) [Fulvestrant, fulvestrant, reference compound]
cell viability ([4]; 1 μM Fulvestrant, 72 hours): no effect on the cell viability

O=C(O)c1cc([N+](=O)[O-])ccc1NCCCc1ccccc1 [NPPB]
IC50 (VRAC): 21000 nM

O=C(Nc1cccc(C(F)(F)F)c1)Nc1ccc(Br)cc1-c1nnn[nH]1 [NS3623]
IC50 (VRAC): 1800 nM

O=C(Nc1cc(C(F)(F)F)cc(C(F)(F)F)c1)Nc1ccc(Br)cc1-c1nnn[nH]1 [NS3728]
tumour growth rate / anti-tumor effect ([5]; 5 million C6 cells, flank of Fisher rats, NS3728 40 mg/kg/day oral, temozolomide 25 mg/kg/day, alone or combined, terminated day 4 of treatment): neither NS3728 (40 mg/kg/day) nor temozolomide (25 mg/kg/day) exhibited any significant anti-tumor effect | tumour growth inhibition as measured by tumour weight (C6 glioma cells): significant inhibition of tumour growth | tumour volume growth curves [1]: mild (non-significant) depression of the growth curves | cell viability ([2]; 40 μM NS3728 monotherapy): did not decrease cell viability | cell viability ([3]; 50 μM NS3728, 72 hours): did not decrease cell viability | cell viability ([6]; 30 μM NS3728, 48 hours): about 85 % of untreated cells | cell viability ([7]; 20 μM NS3728, 48 hours): about 85 % of untreated cells | cell viability [8]: 70 % of untreated control | cell viability ([4]; 40 μM NS3728, 72 hours): 60 % of untreated control | cell viability (HCT116 parental cells; 40 μM NS3728, SN-38 experiment, 48 hours): about 50 % of untreated cells | cell viability (HCT116 parental cells; 50 μM NS3728, SN-38 experiment, 48 hours): about 50 % of untreated cells | cell viability (HCT116 parental cells; NS3728 alone in the OXP experiment (concentration not given in the sentence), 48 hours): about 50 % of untreated cells | cell viability (HT29 parental cells; 40 μM NS3728, 48 hours): about 90 % of untreated cells | cell viability (HT29 parental cells; 50 μM NS3728, 48 hours): about 77 % of untreated cells | IC50 (VRAC): 400 nM | cell viability (LoVo parental cells; 40 μM NS3728, 48 hours): about 45 % of untreated cells | cell viability (LoVo parental cells; 50 μM NS3728, 48 hours): about 38 % of untreated cells | cell viability ([9]; 30 μM NS3728, 48 hours (increased viability)): about 120 % of untreated cells | cell viability ([9]; 40 μM NS3728, 48 hours): no effect on cell viability | cell viability ([9]; 50 μM NS3728, 48 hours): about 85 % of untreated cells | cell viability ([10]; 30 μM NS3728, 48 hours): about 80 % of untreated cells | cell viability ([10]; 50 μM NS3728, 48 hours): about 50 % of untreated cells | inhibition of cisplatin mediated apoptosis (cancer cells): inhibit cisplatin mediated apoptosis | viability at 40 µM [11]: ~57%

O=C(Nc1ccc([N+](=O)[O-])cc1)Nc1ccc(Br)cc1-c1nnn[nH]1 [NS3749]
IC50 (VRAC): 1400 nM

O=C1[O][Pt]2([NH][C@@H]3CCCC[C@H]3[NH]2)[O]C1=O [OXP, oxaliplatin, reference compound]
cell viability (HCT116 parental cells; OXP alone, 48 hours): dose-dependently decreased cell viability

CCc1c2c(nc3ccc(O)cc13)-c1cc3c(c(=O)n1C2)COC(=O)[C@]3(O)CC [SN-38, reference compound]
cell viability ([6]; 4 μM SN-38, 48 hours): almost no effect on cell viability | cell viability ([7]; 0.1 μM SN-38, 48 hours): about 43 % of untreated cells | cell viability (HCT116 parental cells; 0.16 μM SN-38, 48 hours): about 50 % of untreated cells | cell viability (HT29 parental cells; 0.032 μM SN-38, 48 hours): about 77 % of untreated cells | cell viability (LoVo parental cells; 0.0064 μM SN-38, 48 hours): about 53 % of untreated cells | cell viability ([9]; 0.8 μM SN-38, 48 hours): about 78 % of untreated cells | cell viability ([10]; 0.16 μM SN-38, 48 hours): about 78 % of untreated cells

CC(=O)O[C@H]1C(=O)[C@@]2(C)[C@H]([C@H](OC(=O)c3ccccc3)[C@]3(O)C[C@H](OC(=O)[C@H](O)[C@@H](NC(=O)c4ccccc4)c4ccccc4)C(C)=C1C3(C)C)[C@]1(OC(C)=O)CO[C@@H]1C[C@@H]2O [paclitaxel]
tumour volume growth curves [1]: mild (non-significant) depression of the growth curves

Cn1nnc2c(C(N)=O)ncn2c1=O [temozolomide, reference compound]
signs of toxicity (subdued behaviour, hunched appearance, loss of body weight) ([5]; all animals treated with temozolomide 25 mg/kg/day): Clear signs of toxicity
